Results: patent publication US8148421B2, “Phenylacetic acid derivative” (Fuji Yakuhin Co., Ltd., priority 2006, dated 2012)

tested on: PGE2 production in A549 cells; test: Suppressing action against PGE2 production in human cultured cells (A549, IL-1β-induced cyclooxygenase 2, arachidonic acid added); assay type: cell-based; settings: 10 μM test substance, PGE2 in medium by EIA, duplicate
Method: In Vitro Evaluation Method (Suppressing Action Against PGE2 Production in Human Cultured Cells)
A549 cells were inoculated on a 24-well plate (10^5 cells/ml/well), and cultured for 1 day in the Ham's F-12 medium containing 10% fetal bovine serum (FBS). The medium was removed, and the cells were washed with Dulbecco's phosphate buffered saline (PBS), and then cultured for 3 days in the Ham's F-12 medium containing 1 ng/ml of a recombinant human IL-1β and FBS to induce cyclooxygenase 2. After the medium was removed, and the cells were washed with PBS, 0.99 ml of the Ham's F-12 mediums containing a test substance (dissolved in dimethyl sulfoxide at a final concentration of 1% and added) and […] L-glutathione reduced was added to the cells, and the cells were incubated at 37° C. for 30 minutes in a 5% CO2 incubator. To the culture was added 10 μl of a 0.5 mg/ml solution of arachidonic acid in ethanol (final concentration: 5 μg/ml), and the reaction was performed by incubating the culture at 37° C. and 50 rpm for 30 minutes. After completion of the reaction, the medium was immediately collected, and the PGE2 concentration in the medium was measured by using Prostaglandin E2 Express EIA Kit (Cayman Chemical). Dimethyl sulfoxide not containing the test substance was added to a blank and a control, and ethanol not containing arachidonic acid was added to the blank to perform the reaction. The experiment was performed in duplicate. The suppression rate of the test substance based on the control was calculated by using the following equation. Suppression rate (100%)=100×[1−(PGE2 concentration in medium containing test substance−PGE2 concentration in medium of blank)/(PGE2 concentration in medium of control−PGE2 concentration in medium of blank)]

With `CC(C(=O)O)c1ccc(CC2SCCC2O)cc1` (single isomer, unassigned) [Example 27-A, 2-[4-(3-Hydroxythiolan-2-ylmethyl)phenyl]propionic Acid] as the molecule, how does the “PGE2 production suppression rate at 10 μM, Suppression rate (%)” value (“PGE2 production suppression rate … (%)” for short) read?
The value was 40.0%.

With `CC(C(=O)O)c1ccc(CC2SCCC2O)cc1` (single isomer, unassigned) [Example 27-B, 2-[4-(3-Hydroxythiolan-2-ylmethyl)phenyl]propionic Acid] as the molecule, how does the “PGE2 production suppression rate … (%)” value read?
The value was 76.3%.

With `CC(C(=O)O)c1ccc(CC2CCCC2O)cc1` (centres unmarked) [LXP-2a, reference compound] as the molecule, how does the “PGE2 production suppression rate … (%)” value read?
The value was 92.0%.

same assay, conditions: Homo sapiens, A549, 0.5 h, 10 μM test substance, PGE2 in medium by EIA, duplicate, read-out: PGE2 production suppression rate at 10 μM, Suppression rate (%)

Which inhibition at 10 µM does the source give for `CC(C(=O)O)c1ccc(/C=C2\SCCCC2=O)cc1` (centres unmarked) [Example 4, 2-[4-(3-Oxothian-2-ylidenemethyl)phenyl]propionic Acid] here?
The inhibition at 10 µM was 77.8%.

With `CC(C(=O)O)c1ccc(/C=C2\SCCCC2O)cc1` (centres unmarked) [Example 5, 2-[4-(3-Hydroxythian-2-ylidenemethyl)phenyl]propionic Acid] as the molecule, how does the inhibition at 10 µM read?
Its inhibition at 10 µM is 68.4%.

With `CC(C(=O)O)c1ccc(CC2CSCC2=O)cc1` (centres unmarked) [Example 8, 2-[4-(4-Oxothiolan-3-ylmethyl)phenyl]propionic Acid] as the molecule, how does the inhibition at 10 µM read?
Its inhibition at 10 µM is 66.4%.

Which inhibition at 10 µM does the source give for `CC(C(=O)O)c1ccc(CC2CSCC2O)cc1` (centres unmarked) [Example 9-A, 2-[4-(4-Hydroxythiolan-3-ylmethyl)phenyl]propionic Acid] here?
Its inhibition at 10 µM is 34.7%.

With `CC(C(=O)O)c1ccc(CC2C=CSC2)cc1` (centres unmarked) [Example 10, 2-[4-(2,3-Dihydrothiophen-3-ylmethyl)phenyl]propionic Acid] as the molecule, how does the inhibition at 10 µM read?
The inhibition at 10 µM was 69.4%.

For `CC(C(O)=S)c1ccc(CC2CSCC2=O)cc1` (centres unmarked) [Example 11, 2-[4-(4-Oxothiolan-3-ylmethyl)phenyl]thiopropionic Acid], which inhibition at 10 µM is on record?
Its inhibition at 10 µM is 49.2%.

With `CC(C(=O)OC(C)(C)C)c1ccc(/C=C2\SCCC2=O)cc1` (centres unmarked) [Example 13, tert-Butyl 2-{4-[3-oxothiolan-(Z)-2-ylidenemethyl]phenyl}propionate] as the molecule, how does the inhibition at 10 µM read?
Its inhibition at 10 µM is 48%.

With `CC(C(=O)O)c1ccc(/C=C2\SCCC2=O)cc1` (centres unmarked) [Example 14, 2-{4-[3-Oxothiolan-(Z)-2-ylidenemethyl]phenyl}propionic Acid] as the molecule, how does the inhibition at 10 µM read?
Its inhibition at 10 µM is 98.5%.

For `CCOC(=O)C(C)c1ccc(/C=C2\SCCC2=O)cc1` (centres unmarked) [Example 15, Ethyl 2-{4-[3-oxothiolan-(Z)-2-ylidenemethyl]phenyl}propionate], which inhibition at 10 µM is on record?
Its inhibition at 10 µM is 36.9%.

For `CC(C(=O)O)c1ccc(/C=C2\SCCC2O)cc1` (centres unmarked) [Example 18, 2-{4-[3-Hydroxythiolan-(Z)-2-ylidenemethyl]phenyl}propionic Acid], which inhibition at 10 µM is on record?
The inhibition at 10 µM was 99.5%.

With `C[C@H](C(=O)O)c1ccc(/C=C2\SCC[C@@H]2O)cc1` [Example 19-C, (2S,3′S)-2-{4-[3-Hydroxythiolan-(Z)-2-ylidenemethyl]phenyl}propionic Acid] as the molecule, how does the inhibition at 10 µM read?
Its inhibition at 10 µM is 101%.

With `C[C@@H](C(=O)O)c1ccc(/C=C2\SCC[C@@H]2O)cc1` [Example 19-D, (2R,3′S)-2-{4-[3-Hydroxythiolan-(Z)-2-ylidenemethyl]phenyl}propionic Acid] as the molecule, how does the inhibition at 10 µM read?
The inhibition at 10 µM was 44.5%.

Which inhibition at 10 µM does the source give for `C[C@H](C(=O)O)c1ccc(/C=C2/C=CCS2)cc1` [Example 20, (2S)-2-[4-(2,5-Dihydrothien-(Z)-2-ylidenemethyl)phenyl]propionic Acid] here?
The inhibition at 10 µM was 94.5%.

With `CC(C(=O)O)c1ccc(/C=C2\CSCC2O)cc1` (centres unmarked) [Example 22, 2-[4-(4-Hydroxythiolan-3-ylidenemethyl)phenyl]propionic Acid] as the molecule, how does the inhibition at 10 µM read?
Its inhibition at 10 µM is 99.7%.

With `CC(C(=O)O)c1ccc(/C=C2\CSCC2=O)cc1` (centres unmarked) [Example 23, 2-[4-(4-Oxothiolan-3-ylidenemethyl)phenyl]propionic Acid] as the molecule, how does the inhibition at 10 µM read?
The inhibition at 10 µM was 102%.

Which inhibition at 10 µM does the source give for `CC(C(=O)O)c1ccc(/C=C2\SCCC2(F)F)cc1` (centres unmarked) [Example 25, 2-[4-(3,3-Difluorothiolan-2-ylidenemethyl)phenyl]propionic Acid] here?
The inhibition at 10 µM was 73.3%.

With `CC(C(=O)O)c1ccc(CC2SCCC2=O)cc1` (centres unmarked) [Example 26, 2-[4-(3-Oxothiolan-2-ylmethyl)phenyl]propionic Acid] as the molecule, how does the inhibition at 10 µM read?
Its inhibition at 10 µM is 79.6%.

For `O=C(O)Cc1ccc(/C=C2\SCCC2=O)cc1` [Example 29, 4-(3-Oxothiolan-2-ylidenemethyl)phenylacetic Acid], which inhibition at 10 µM is on record?
Its inhibition at 10 µM is 96.8%.

Which inhibition at 10 µM does the source give for `O=C(O)Cc1ccc(/C=C2\SCCC2O)cc1` (centres unmarked) [Example 31, 4-(3-Hydroxythiolan-2-ylidenemethyl)phenylacetic Acid] here?
The inhibition at 10 µM was 85.9%.

With `CC(C(=O)O)c1ccc(/C=C2\CCSC2=O)cc1` (centres unmarked) [Example 35, 2-[4-(2-Oxothiolan-3-ylidenemethyl)phenyl]propionic Acid] as the molecule, how does the inhibition at 10 µM read?
Its inhibition at 10 µM is 44%.

For `CC(C(=O)O)c1ccc(/C=C2/CCCS2)cc1` (centres unmarked) [Example 37, 2-[4-(Thiolan-2-ylidenemethyl)phenyl]propionic Acid], which inhibition at 10 µM is on record?
Its inhibition at 10 µM is 89.7%.

Which inhibition at 10 µM does the source give for `COc1cc(/C=C2\SCCC2O)ccc1C(C)C(=O)O` (centres unmarked) [Example 53, 2-[4-(3-Hydroxythiolan-2-ylidenemethyl)-2-methoxyphenyl]propionic Acid] here?
Its inhibition at 10 µM is 72.8%.

Which inhibition at 10 µM does the source give for `CC(C(=O)O)c1ccc(/C=C2\SCCC2O)c([N+](=O)[O-])c1` (centres unmarked) [Example 57, 2-[4-(3-Hydroxythiolan-2-ylidenemethyl)-3-nitrophenyl]propionic Acid] here?
The inhibition at 10 µM was 91.6%.

For `CC(C(=O)O)c1ccc(/C=C2\SCCC2O)c(F)c1` (centres unmarked) [Example 61, 2-[3-Fluoro-4-(3-hydroxythiolan-2-ylidenemethyl)phenyl]propionic Acid], which inhibition at 10 µM is on record?
The inhibition at 10 µM was 92.8%.

With `CC(C(=O)O)c1ccc(/C=C2\SCCC2O)c(Cl)c1` (centres unmarked) [Example 65, 2-[3-Chloro-4-(3-hydroxythiolan-2-ylidenemethyl)phenyl]propionic Acid] as the molecule, how does the inhibition at 10 µM read?
The inhibition at 10 µM was 101%.

Which inhibition at 10 µM does the source give for `CC(C(=O)O)c1cccc(/C=C2\SCCC2O)c1` (centres unmarked) [Example 69, 2-[3 (3-Hydroxythiolan-2-ylidenemethyl)phenyl]propionic Acid] here?
The inhibition at 10 µM was 22.8%.

tested on: CPA-induced rat pollakiuria model; test: Anti-pollakiuria effect in cyclophosphamide (CPA)-induced rat pollakiuria model; assay type: in vivo; settings: oral administration, male SD rats, CPA 150 mg/kg i.p., urination frequency over 3 hours, probit method
Method: 1. Anti-Pollakiuria Effect in Cyclophosphamide (CPA)-Induced Rat Pollakiuria Model
To 7-week old male SD rats, 150 mg/kg of CPA was intraperitoneally administered, and the rats were starved for 24 hours, and then used for the test. Thirty minutes after the oral administration of the test substance, physiological saline (30 ml/kg) was orally administered, the rats were put into a metabolism cage for rats, and then frequency of urination was counted for 3 hours. For the counting of the frequency of urination, a weighing dish hung from an FD pickup was disposed at a urine outlet at the lower part of the metabolism cage, and frequency of urination was obtained based on change of urination volume obtained by a polygraph apparatus. To a control (treated with CPA) and an intact control (no treatment), the solvent was orally administered, and frequency of urination was counted in the same manner. Improvement rate of pollakiuria induced by the CPA treatment relative to the control was calculated in accordance with the following equation, and ED50 value was further calculated by the probit method based on the improvement rate at each dose. Improvement rate (%)=(Urination frequency of control−Urination frequency observed with test substance)/(Urination frequency of control−Urination frequency of intact control)×100

For `C[C@H](C(=O)O)c1ccc(/C=C2\SCC[C@@H]2O)cc1` [Example 19-C, (2S,3′S)-2-{4-[3-Hydroxythiolan-(Z)-2-ylidenemethyl]phenyl}propionic Acid], which ED50 is on record?
The ED50 was 0.1 mg/kg.

With `CC(C(=O)O)c1ccc(CC2CCCC2=O)cc1` (centres unmarked) [Loxoprofen-Na, reference compound] as the molecule, how does the ED50 read?
The ED50 was 1.8 mg/kg.

tested on: gastric mucosa; test: Gastric mucosa injury induction action by single oral administration in rats; assay type: in vivo, rat; settings: starved male SD rats, stomach examined after 5 hours, probit method
Method: 2. Gastric Mucosa Injury Induction Action by Single Oral Administration in Rats
7-Week old male SD rats were starved for 24 hours, and then used for the test. Five hours after the oral administration of a test substance, the stomach was extracted, and incised along the greater curvature of stomach, and a stomach specimen was fixed in a neutrally buffered 1% formalin solution. The stomach specimen was observed under a stereoscopic microscope, and when specimen had four or more hemorrhagic sores or ulcers having a major axis of 0.5 mm or larger, the result was judged to be positive. […]

For `C[C@H](C(=O)O)c1ccc(/C=C2\SCC[C@@H]2O)cc1` [Example 19-C, (2S,3′S)-2-{4-[3-Hydroxythiolan-(Z)-2-ylidenemethyl]phenyl}propionic Acid], which “UD30 value (gastric mucosa injury)” value is on record?
The value was 13.8 mg/kg.

With `CC(C(=O)O)c1ccc(CC2CCCC2=O)cc1` (centres unmarked) [Loxoprofen-Na, reference compound] as the molecule, how does the “UD30 value (gastric mucosa injury)” value read?
The value was 25.5 mg/kg.

tested on: not listed separately; test: Safety factor (UD30 gastric mucosa injury / ED50 anti-pollakiuria); assay type: in vivo; settings: SD, rat, in vivo
From the text: Safety factor was obtained in accordance with the following equation using the ED50 value and UD30 value obtained in the tests for the anti-pollakiuria effect in CPA-induced rat pollakiuria model and the gastric mucosa injury induction action by single oral administration in rats, respectively. Safety factor=UD30 value (mg/kg) for gastric mucosa injury induction action by single oral administration in rats/ED50 value (mg/kg) for anti-pollakiuria effect in CPA-induced rat pollakiuria model

Which Safety factor does the source give for `CC(C(=O)O)c1ccc(CC2CCCC2=O)cc1` (centres unmarked) [Loxoprofen-Na, reference compound] here?
Its Safety factor is 14.

same assay, conditions: UD30 value (mg/kg) / ED50 value (mg/kg), rats

For `C[C@H](C(=O)O)c1ccc(/C=C2\SCC[C@@H]2O)cc1` [Example 19-C, (2S,3′S)-2-{4-[3-Hydroxythiolan-(Z)-2-ylidenemethyl]phenyl}propionic Acid], which Safety factor is on record?
The Safety factor was 138.
